System: DYT1 knockin (Tor1a^delGAG/+) murine embryonic fibroblasts (MEFs)
Assay: Untargeted LC/MS/MS proteomics of EVs from DYT1 MEFs exposed 24 hours to drug, compared with untreated DYT1 (Het) MEFs
Format: cell-based, mouse
Experimental: Methods for isolation and purification of exosomes and extracellular vesicles (EV) were extensively reviewed. Experiments were performed to arrive at a robust and reproducible protocol. The protocol used herein is that set forth in Théry et al, 2006, which is incorporated by reference for it teaching of this protocol. This protocol involves depleting serum-derived EVs from cell culture media by overnight ultracentrifugation and exchanging media for 1% FBS EV-depleted media. Media is then collected from cells following a 24-hour conditioning period and EVs are isolated by 18-hour ultracentrifugation at 100,000 g (FIG. 1A).
EVs were isolated from media of cultured murine embryonic fibroblasts (MEFs) prepared in-house according to protocols described by Xu 2005 from DYT1 knockin mice (Tor1a^delGAG/+) (Goodchild R E, et al. (2005) Neuron. 48:923-932) and littermate wild-type (WT) controls. The cultured MEFs from the DYT1 mice were exposed for 24 hours to Ritonavir (RTV) while the MEFs from WT mice were exposed to vehicle, ISRIB, or Salubrinal (SAL). The EVs isolated from these WT cells and DYT1 were characterized by untargeted proteomics and RNA-seq to identify differentially expressed proteins and RNAs as candidate biomarkers. Experimenter and Proteomics core staff were blinded to genotype of cell cultures throughout preparation and analysis phases.
Samples were first normalized to 20 μg and spiked with undigested casein at a total of 40 fmol/μg, 80 fmol/μg, or 160 fmol/μg, then reduced with 10 mM dithiolthreitol for 30 minute at 80° C. and alkylated with 20 mM iodoacetamide for 30 minutes at room temperature. Next, the samples were supplemented with a final concentration of 1.2% phosphoric acid and 741 μL of S-Trap (Protifi) binding buffer (90% MeOH/100 mM […]). Proteins were trapped on the S-Trap, digested using 20 ng/μL sequencing grade trypsin (Promega) for 1 hour at 47° C., and eluted using 50 mM TEAB, followed by 0.2% FA, and lastly using 50% CAN/0.2% FA. All samples were then lyophilized to dryness and resuspended in 40 μL 1% TFA/2% acetonitrile containing 12.5 fmol/μL yeast alcohol dehydrogenase (ADH_YEAST). A QC Pool was created from 3 uL of each sample. All QC Pools were run periodically throughout the acquisition period.
Quantitative LC/MS/MS was performed on 2 μL of each sample, using a nanoAcquity UPLC system (Waters Corp) coupled to a Thermo Orbitrap Fusion Lumos high resolution accurate mass tandem mass spectrometer (Thermo) via a nanoelectrospray ionization source. Briefly, the sample was first trapped on a Symmetry C18 20 mm×180 μm trapping column (5 μL/min at 99.9/0.1 v/v water/acetonitrile), after which the analytical separation was performed using a 1.8 μm Acquity HSS T3 C18 75 μm×250 mm column (Waters Corp.) with a 90 minute linear gradient of 5% to 30% acetonitrile with 0.1% formic acid at a flow rate of 400 nanoliters/minute (nL/min) with a column temperature of 55° C. Data collection on the Fusion Lumos mass spectrometer was performed in a data-dependent acquisition (DDA) mode of acquisition with a r=120,000 (@ m/z 200) full MS scan from m/z 375-1500 with a target AGC value of 2e5 ions. MS/MS scans were acquired at Rapid scan rate (Ion Trap) with an AGC target of 5e3 ions and a max injection time of 100 ms. The total cycle time for MS and MS/MS scans was 2 seconds. A 20 second dynamic exclusion was employed to increase depth of coverage. The total analysis cycle time for each sample injection was approximately 2 hours.

Measured: SAL Direction Opposite ISRIB?

O=C(/C=C/c1ccccc1)NC(NC(=S)Nc1cccc2cccnc12)C(Cl)(Cl)Cl (stereo not shown) [SAL, Salubrinal]
yes: DYT1 (Het) MEF EVs, protein: DNA replication licensing factor MCM6 | DYT1 (Het) MEF EVs, protein: DNA-directed RNA polymerases I and III subunit RPAC1 | DYT1 (Het) MEF EVs, protein: Protein arginine N-methyltransferase 3 | DYT1 (Het) MEF EVs, protein: Scavenger receptor class B member 1 | DYT1 (Het) MEF EVs, protein: Serine threonine-protein phosphatase 2A 55 kDa regulatory subunit B alpha isoform | DYT1 (Het) MEF EVs, protein: Small nuclear ribonucleoprotein-associated protein B | EV protein: 26S proteasome non-ATPase regulatory subunit 8 | EV protein: 60S [?] subunit biogenesis protein [?] homolog | EV protein: 60S ribosomal protein [?] | EV protein: 116 kDa [?] small nuclear ribonucleoprotein component | EV protein: AP-3 complex subunit [?] | EV protein: ATP-dependent RNA helicase [?] | EV protein: Acyl-protein thioesterase 2 | EV protein: Anaphase-promoting complex subunit 2 | EV protein: Anaphase-promoting complex subunit 5 | EV protein: Apolipoprotein M | EV protein: Calnexin | EV protein: Cell [?] cycle protein [?] homolog | EV protein: Coiled-coil domain-containing protein 22 | EV protein: Cullin-2 | EV protein: Cullin-5 | EV protein: Cullin-7 | EV protein: DNA [?] (r264) | EV protein: DNA ligase 1 | EV protein: DNA replication licensing factor [?] | EV protein: DNA-directed RNA polymerase II subunit RPB1 | EV protein: DNA-directed RNA polymerase II subunit RPB2 | EV protein: DNA-directed RNA polymerase II subunit RPB3 | EV protein: DNA-directed RNA polymerases I, II, and III subunit RPABC3 | EV protein: DNA-directed RNA polymerases I, II, and III subunit [?] | EV protein: Double-strand-break repair protein rad21 homolog | EV protein: Elongin-B | EV protein: Exosome complex exonuclease RRP44 | EV protein: Extended synaptotagmin-1 | EV protein: Gamma-tubulin complex component 2 | EV protein: General vesicular transport factor p115 | EV protein: Glycosylated lysosomal membrane protein | EV protein: Glycylpeptide N-tetradecanoyltransferase 1 | EV protein: Golgi reassembly-stacking protein 2 | EV protein: Histone-arginine methyltransterase CARM1 | EV protein: Importin-7 | EV protein: Leucyl-cystinyl aminopeptidase | EV protein: Mediator [?] RNA polymerase II transcription subunit 23 | EV protein: Metastasis-associated protein [?] (r222) | EV protein: Metastasis-associated protein [?] (r261) | EV protein: Microtubule-associated protein [?] | EV protein: Nuclear [?] complex protein [?] | EV protein: Nuclear cap-binding protein subunit 1 | EV protein: Nuclear receptor-binding protein | EV protein: Phosphoribosyl pyrophosphate synthase-associated protein 1 | EV protein: Pigment epithelium-derived factor | EV protein: Protein O-GlcNAcase | EV protein: Protein [?] 14 homolog | EV protein: Protein [?] (r160) | EV protein: Ran-binding protein 10 | EV protein: Ribosome biogenesis protein BOP1 | EV protein: Ribosome production factor 2 homolog | EV protein: Serine threonine-protein phosphatase 6 catalytic subinit | EV protein: Sorting nexin-1 | EV protein: Trascriptional activator protein [?] -alpha | EV protein: WD repeat-containing protein [?] | EV protein: [?] -1 (r154) | EV protein: [?] -1 (r232) | EV protein: [?] -conjucating enxyme [?] | EV protein: [?] kinase | EV protein: [?] myosin- [?] | EV protein: [?] repeat-containing protein 5A | EV protein: [?] small nuclear ribonucleoprotein 40 kDa protein | EV protein: p21-activated protein kinase-interacting protein 1 | EV protein: transportin-3
